Assay results: publication PMC11783601, “Analogue-Sensitive Inhibition of Histone Demethylases Uncovers Member-Specific Function in Ribosomal Protein Synthesis” (Journal of the American Chemical Society, 2025)
Several values for one entry are separate records, joined by “and”; a condition that tells them apart may be missing. Identical values can stand only once.

Target: T1, KDM4A F185A (asKDM4A) in HEK293T cells (Homo sapiens, UniProt O75164, F185A)
T1 construct: we generated the F185A mutation in full-length KDM4A carrying all of the functional domains; host or cells: HEK293T
T1 sequence (O75164 1-1064 F185A): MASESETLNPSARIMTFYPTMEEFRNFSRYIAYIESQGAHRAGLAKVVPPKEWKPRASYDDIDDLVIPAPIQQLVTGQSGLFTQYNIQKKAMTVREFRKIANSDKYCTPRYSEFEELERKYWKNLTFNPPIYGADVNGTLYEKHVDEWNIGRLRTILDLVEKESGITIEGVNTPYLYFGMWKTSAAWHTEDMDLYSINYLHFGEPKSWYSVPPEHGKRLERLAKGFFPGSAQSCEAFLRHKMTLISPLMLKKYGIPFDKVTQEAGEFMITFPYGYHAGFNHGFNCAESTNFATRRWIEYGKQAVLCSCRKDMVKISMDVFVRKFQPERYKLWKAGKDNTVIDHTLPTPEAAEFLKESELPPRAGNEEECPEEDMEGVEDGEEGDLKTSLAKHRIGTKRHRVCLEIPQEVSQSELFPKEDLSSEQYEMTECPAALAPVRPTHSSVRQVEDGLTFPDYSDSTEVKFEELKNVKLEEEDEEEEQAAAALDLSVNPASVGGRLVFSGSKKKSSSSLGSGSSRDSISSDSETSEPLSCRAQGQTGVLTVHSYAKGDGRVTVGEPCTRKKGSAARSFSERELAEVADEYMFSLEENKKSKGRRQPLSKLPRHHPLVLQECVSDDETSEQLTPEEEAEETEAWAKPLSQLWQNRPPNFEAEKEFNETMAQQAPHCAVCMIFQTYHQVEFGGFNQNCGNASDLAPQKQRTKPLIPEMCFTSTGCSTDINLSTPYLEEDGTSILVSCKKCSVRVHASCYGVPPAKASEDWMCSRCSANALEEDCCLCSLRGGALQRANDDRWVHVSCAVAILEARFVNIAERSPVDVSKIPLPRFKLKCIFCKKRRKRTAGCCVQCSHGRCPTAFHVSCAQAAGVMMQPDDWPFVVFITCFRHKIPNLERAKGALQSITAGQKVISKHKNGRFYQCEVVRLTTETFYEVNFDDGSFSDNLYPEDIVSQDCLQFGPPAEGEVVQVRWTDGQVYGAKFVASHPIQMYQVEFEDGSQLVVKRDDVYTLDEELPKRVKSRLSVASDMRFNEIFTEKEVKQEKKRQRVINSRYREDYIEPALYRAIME
Assay: Histone extraction, digestion and tandem mass spectrometry (relative abundance of histone modifications)
Assay type: cell-based
Settings: peptide form; samples 6A_1, 6A_2
Protocol: HEK293T cells were transiently transfected with asKDM4A and treated with varying concentrations of 6A or 6B. […] To further confirm the activity of the enzyme–inhibitor pair, we performed tandem mass spectrometry of tryptic histones isolated from HEK293T cells expressing asKDM4A in the presence or absence of 100 μM 6A. […]
22. Histone extraction, digestion and tandem mass spectrometry
HEK 293-T cells (ATCC CRL-1573) were plated into 6-well plates (Corning) in DMEM (Corning) supplemented with 10% FBS (Corning) and 1X Antibiotic/Antimycin
(Penicillin/Streptomycin/Fungiozone) (Cytiva HyClone) in an incubator held at 37 °C with 5%
CO2. At 75% confluency, cells were transfected with 2.5 µg KDM4A F185A or Empty Vector with 5µg Thermo Turbofect (FERR0531). After 4 hours, the media was washed and 200 µM of 6A or equivalent volume of DMSO was added and left to incubate at 37 °C for 24 hours. Cells were then washed with 1X PBS (Corning) followed by trypsinization (Gibco TrypLE™ Express Enzyme). Collected cells were centrifuged at 3000xg for 3 minutes, followed by washing with 1X PBS and centrifuged for an additional 3000xg for 3 minutes. Histone proteins were extracted from the pellet as described by25 to ensure good-quality identification and quantification of single histone marks. Briefly, cell pellets were dissolved in 100 µL of cold 0.2 M H2SO4 and incubated for 2 hours rotating in a cold room (4 °C). Aliquots were then centrifuged at 3400xg for 5 minutes […]
at 4 °C and the supernatant was added to a fresh tube. 100% cold TCA was then added to a final volume of 33% volume/volume TCA/supernatant and left to incubate for 1 hour in a cold room (4 °C). Samples were then centrifuged at 3400xg for 5 min at 4 °C and the supernatant was discarded. The precipitate was then washed with cold acetone/0.1% HCl and centrifuged at 3400xg for 5 minutes at 4 °C. The supernatant was discarded, and the precipitate was washed with cold acetone and centrifuged at 3400xg for 5 minutes at 4 °C. The supernatant was discarded, and the pellet was dried using a vacuum centrifuge.
The pellet was dissolved in 50 mM ammonium bicarbonate, pH 8.0, and histones were subjected to derivatization using 5 µL of propionic anhydride and 14 µL of ammonium hydroxide (all Sigma Aldrich) to balance the pH at 8.0. The mixture was incubated for 15 min and the procedure was repeated. Histones were then digested with 1 µg of sequencing grade trypsin (Promega) diluted in 50mM ammonium bicarbonate (1:20, enzyme:sample) overnight at room temperature.
Derivatization reaction was repeated to derivatize peptide N-termini. The samples were dried in a […]
Sample desalting: Prior to mass spectrometry analysis, samples were desalted using a 96-well plate filter (Orochem) packed with 1 mg of Oasis HLB C-18 resin (Waters). Briefly, the samples were resuspended in 100 µl of 0.1% TFA and loaded onto the HLB resin, which was previously equilibrated using 100 µl of the same buffer. After washing with 100 µl of 0.1% TFA, the samples were eluted with a buffer containing 70 µl of 60% acetonitrile and 0.1% TFA and then dried in a […]
LC-MS/MS Acquisition and Analysis: Samples were resuspended in 10 µl of 0.1% TFA and loaded onto a Dionex RSLC […] (Thermo Scientific), coupled online with an Orbitrap Fusion Lumos (Thermo Scientific). Chromatographic separation was performed with a two-column system, consisting of a C-18 trap cartridge (300 µm ID, 5 mm length) and a picofrit analytical column (75 µm ID, 25 cm length) packed in-house with reversed-phase Repro-Sil Pur C18-AQ 3 µm resin. Peptides were separated using a 30 min gradient from 1-30% buffer B (buffer A: 0.1% formic acid, buffer B: 80% acetonitrile + 0.1% formic acid) at a flow rate of 300 nl/min.
The mass spectrometer was set to acquire spectra in a data-independent acquisition (DIA) mode.

## CCCCCCCCOC(=O)C(=O)NC(CC(C)C)C(=O)O [6A, L-Leu octyl-ester NOG]
  Relative abundance, H3_9_17 K9me1S10ph: 7.8% and 0.0004%
  Relative abundance, H3_9_17 K9me1S10phK14ac: 0.0342% and 0.0031%
  Relative abundance, H3_9_17 K9me2: 22.1% and 17.2%
  Relative abundance, H3_9_17 K9me2K14ac: 19.6% and 31.3%
  Relative abundance, H3_9_17 K9me2S10ph: 0.317% and 0.0091%
  Relative abundance, H3_9_17 K9me2S10phK14ac: 0.125% and 0.1%
  Relative abundance, H3_9_17 K9me3: 10.5% and 10.1%
  Relative abundance, H3_9_17 K9me3K14ac: 4.9% and 8.1%
  Relative abundance, H3_9_17 K9me3S10ph: 0.178% and 0.2%
  Relative abundance, H3_9_17 K9me3S10phK14ac: 0.0363% and 0.177%
  Relative abundance, H3_9_17 K14ac: 8.4% and 11.5%
  Relative abundance, H3_9_17 S10ph: 0.0768% and 0.0083%
  Relative abundance, H3_9_17 S10phK14ac: 0.0443% and 0.0008%
  Relative abundance, H3_9_17 unmod: 9.8% and 11.8%
  Relative abundance, H3_18_26 K18ac: 0.249% and 0.34%
  Relative abundance, H3_18_26 K18acK23ac: 0.647% and 0.316%
  Relative abundance, H3_18_26 K18me1: 0.0% and 0.0012%
  Relative abundance, H3_18_26 K18me1K23me1: 0.0%
  Relative abundance, H3_18_26 K23ac: 50.6% and 44.0%
  Relative abundance, H3_18_26 K23me1: 0.0% and 0.0005%
  Relative abundance, H3_18_26 unmod: 48.5% and 55.3%
  Relative abundance, H3_27_40 K27ac: 0.0296% and 0.0%
  Relative abundance, H3_27_40 K27me1: 3.2% and 3.4%
  Relative abundance, H3_27_40 K27me1K36me1: 5.3% and 3.7%
  Relative abundance, H3_27_40 K27me1K36me2: 8.3% and 9.8%
  Relative abundance, H3_27_40 K27me1K36me3: 1.2% and 1.9%
  Relative abundance, H3_27_40 K27me1S28ph: 0.0041% and 0.002%
  Relative abundance, H3_27_40 K27me2: 15.4% and 12.9%
  Relative abundance, H3_27_40 K27me2K36me1: 9.5% and 8.5%
  Relative abundance, H3_27_40 K27me2K36me2: 22.1% and 30.2%
  Relative abundance, H3_27_40 K27me2S28ph: 0.0281% and 0.0017%
  Relative abundance, H3_27_40 K27me3: 11.7% and 6.9%
  Relative abundance, H3_27_40 K27me3K36me1: 3.6% and 2.6%
  Relative abundance, H3_27_40 K27me3K36me2: 3.5% and 4.6%
  Relative abundance, H3_27_40 K27me3S28ph: 0.0216% and 0.0012%
  Relative abundance, H3_27_40 K36me1: 1.9% and 1.7%
  Relative abundance, H3_27_40 K36me2: 3.2% and 4.8%
  Relative abundance, H3_27_40 K36me3: 5.9% and 4.4%
  Relative abundance, H3_27_40 S28ph: 0.0007% and 0.1%
  Relative abundance, H3_27_40 unmod: 5.0% and 4.6%
  Relative abundance, H3_41_49 Y41ph: 0.001% and 0.173%
  Relative abundance, H3_41_49 unmod: 100.0% and 99.8%
  Relative abundance, H3_54_63 K56ac: 0.0%
  Relative abundance, H3_54_63 K56me2: 0.0%
  Relative abundance, H3_54_63 K56me3: 0.0%
  Relative abundance, H3_73_83 K79ac: 0.0%
  Relative abundance, H3_73_83 K79me3: 4.6% and 0.0%
  Relative abundance, H4_4_17 K5ac: 1.3% and 2.1%
  Relative abundance, H4_4_17 K5acK8ac: 0.3% and 1.0%
  Relative abundance, H4_4_17 K5acK8acK12ac: 0.261% and 1.3%
  Relative abundance, H4_4_17 K5acK8acK12acK16ac: 0.0284% and 2.6%
  Relative abundance, H4_4_17 K5acK8acK16ac: 0.279% and 0.9%
  Relative abundance, H4_4_17 K5acK12ac: 0.8% and 3.1%
  Relative abundance, H4_4_17 K5acK12acK16ac: 0.471% and 3.1%
  Relative abundance, H4_4_17 K5acK16ac: 0.7% and 2.5%
  Relative abundance, H4_4_17 K8ac: 1.3% and 1.4%
  Relative abundance, H4_4_17 K8acK12ac: 0.211% and 0.6%
  Relative abundance, H4_4_17 K8acK12acK16ac: 1.2% and 4.4%
  Relative abundance, H4_4_17 K8acK16ac: 1.5% and 3.9%
  Relative abundance, H4_4_17 K12ac: 2.8% and 4.2%
  Relative abundance, H4_4_17 K12acK16ac: 3.3% and 7.5%
  Relative abundance, H4_4_17 K16ac: 24.2% and 24.4%
  Relative abundance, H4_4_17 unmod: 61.3% and 37.2%
  Relative abundance, H4_20_23 K20ac: 0.3% and 1.3%
  Relative abundance, H4_20_23 K20me1: 48.4% and 36.1%
  Relative abundance, H4_20_23 K20me3: 3.5% and 3.6%
  Relative abundance, H4_20_23 unmod: 37.7% and 34.8%
  Relative abundance, H4_24_35 unmod: 100.0%
  Relative abundance, H4_40_45 K44ac: 0.0025% and 0.039%
  Relative abundance, H4_40_45 unmod: 100.0%
  Relative abundance, H4_79_92 unmod: 100.0%
  Relative abundance, H33_27_40 K27ac: 0.0069% and 0.0%
  Relative abundance, H33_27_40 K27me1: 3.6% and 2.5%
  Relative abundance, H33_27_40 K27me1K36me1: 4.8% and 3.5%
  Relative abundance, H33_27_40 K27me1K36me2: 11.0% and 11.1%
  Relative abundance, H33_27_40 K27me1K36me3: 2.1% and 3.4%
  Relative abundance, H33_27_40 K27me1S28ph: 0.0023% and 0.024%
